One experiment relates to 3D7 P. falciparum strain. Kind of experiment: parasite proliferation assay in infected red blood cells (SYBR Green I). Conditions: Plasmodium falciparum, 3D7, Erythrocyte, 3D7 strain; read-out: EC50 3D7 strain. Format: cell-based, Plasmodium falciparum. In short, it runs like this:
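P. falciparum 3D7 grown in O+ human erythrocytes to 3–8% parasitemia and exposed to compounds. Proliferation read as the increase in parasite DNA. Detection used SYBR Green I in saponin/triton-X/EDTA lysis buffer, with overnight lysis at room temperature.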

Experiment [1] has as its system Trypanosoma brucei Lister 427 strain. Kind of experiment: Trypanosoma brucei proliferation assay (Cell Titer Glo). The experiment is classed as cell-based. Conditions: Lister 427 bloodstream form, 48 hours, read-out: EC50, proliferation of T. brucei. From the text:
Compounds of the invention can be assayed to measure their capacity to inhibit proliferation of kinetoplastid parasite Trypanosoma brucei. The proliferation is quantified by the addition of Cell Titer Glo (Promega®) a luminescent cell viability assay that measures the number of viable cells in culture based on the quantification of cellular ATP amount, which is an indicator of metabolically active cells.
The following assay illustrates the invention without in any way limiting the scope of the invention. This parasite proliferation assay measures the increase in parasite growth using an assay that measures ATP activity, Cell Titer Glo®.
Trypanosoma brucei Lister 427 strain is grown in HMI-9 Trypanosome media for T. brucei bloodstream form. 30 μl of HMI-9 media is dispensed into 384 well assay plates. 200 nl of compounds of the invention (in DMSO), including anti-trypanosome controls (Pentamidine and suramin), are then transferred into the assay plates, as well as DMSO alone to serve as a negative control for inhibition. Then 25 μl of a suspension of T. brucei culture in HMI-9 media is dispensed into the assay plates. The final concentration of parasites in culture corresponds to 1.7% of 0.5 uM ATP activity with Cell Titer Glo® in HMI-9 media. […] The plates are then read for luminescence.
In general terms: ATP-based viability assays read luminescence as a measure of living cells.

In experiment [2] the target is mitogen-activated protein kinase-activated protein kinase 2 (MapKap2 or MK-2) (Homo sapiens, UniProt P49137). Nature of the experiment: MK-2 enzyme inhibition, single point concentration. Format: biochemical.
Sequence of mitogen-activated protein kinase-activated protein kinase 2 (MapKap2 or MK-2) (P49137 whole entry): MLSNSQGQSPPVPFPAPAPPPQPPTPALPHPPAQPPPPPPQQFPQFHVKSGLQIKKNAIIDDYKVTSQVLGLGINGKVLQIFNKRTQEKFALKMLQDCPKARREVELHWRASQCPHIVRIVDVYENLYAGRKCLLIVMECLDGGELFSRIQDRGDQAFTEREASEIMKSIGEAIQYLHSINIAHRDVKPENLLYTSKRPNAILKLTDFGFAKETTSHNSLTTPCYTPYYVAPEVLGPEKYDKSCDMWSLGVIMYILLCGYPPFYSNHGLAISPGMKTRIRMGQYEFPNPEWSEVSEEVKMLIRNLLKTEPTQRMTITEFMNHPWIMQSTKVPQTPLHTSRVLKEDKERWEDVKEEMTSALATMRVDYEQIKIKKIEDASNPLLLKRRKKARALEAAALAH
For experiment [3], the target named is cannabinoid receptor 1 (CB1) (Homo sapiens, UniProt P21554). Nature of the experiment: cannabinoid receptor 1 (CB1) IC50. The settings on record: read-out: IC50 against CB1. Format: binding.
Sequence of cannabinoid receptor 1 (CB1) (P21554 whole entry, species assumed): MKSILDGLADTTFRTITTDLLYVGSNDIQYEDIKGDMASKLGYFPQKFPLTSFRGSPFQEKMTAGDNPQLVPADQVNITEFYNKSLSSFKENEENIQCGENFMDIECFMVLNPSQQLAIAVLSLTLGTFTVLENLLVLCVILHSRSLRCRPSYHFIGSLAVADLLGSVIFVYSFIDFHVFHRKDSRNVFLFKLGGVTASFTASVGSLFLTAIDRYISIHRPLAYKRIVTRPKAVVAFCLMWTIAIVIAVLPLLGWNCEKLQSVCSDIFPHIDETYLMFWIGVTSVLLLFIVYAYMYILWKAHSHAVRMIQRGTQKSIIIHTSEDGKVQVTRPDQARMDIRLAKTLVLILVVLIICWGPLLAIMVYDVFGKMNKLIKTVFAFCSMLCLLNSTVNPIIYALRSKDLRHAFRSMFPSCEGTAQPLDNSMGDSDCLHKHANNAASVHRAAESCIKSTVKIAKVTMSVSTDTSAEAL
A further experiment concerns W2 strain. Kind of experiment: parasite proliferation assay in infected red blood cells (SYBR Green I), W2 strain. Format: cell-based, Plasmodium falciparum. The settings on record: Plasmodium falciparum, Erythrocyte. From the text: Compounds of the invention can be assayed to measure their capacity to inhibit proliferation of parasitemia in infected red blood cells. The proliferation is quantified by the addition of SYBR Green I (INVITROGEN)® dye which has a high affinity for double stranded DNA.

Take `CC1(C)c2nc(-c3ccc(F)cc3)c(Nc3ccc(F)cc3)n2CCN1C(=O)CN` [example 412, 2-amino-1-(2-(4-fluorophenyl)-3-(4-fluorophenylamino)-8,8-dimethyl-5,6-dihydroimidazo[1,2-a]pyrazin-7(8H)-yl)ethanone]: the EC50 amounted to 0.01 µM in the experiment with 3D7 P. falciparum strain, 10 µM in experiment [1] and 0.006 µM in the experiment on W2 strain. Also, the “inhibition of MK-2” value in experiment [2] is 7%. Further, in experiment [3], the IC50 was determined as 24 µM.

The term IC50 denotes the point on the concentration scale where inhibition reaches its midpoint.

Values taken from patent US9469645B2, “Compounds and compositions for the treatment of parasitic diseases” (Novartis AG, priority 2009, dated 2016).
